“Also recorded” adds a separate entry of the source.
Key:
[1] = target: TrkA (Homo sapiens, UniProt P04629); assay: KINOMEscan primary screen against TrkA; format: binding; conditions: % of control
Experimental: (§1) Compounds were initially tested in a primary screen against TrkA (at 10 and 100 nM) and AurA (at 100 nM and 1 μM) using the KINOMEscan technology from DiscoverX Corporation, Fremont, Calif., USA (https://www.discoverx.com/services/drug-discovery-development-services/kinase-profiling/kinomescan).
Results were reported as % of control (% Ctrl.=(test compound signal−positive control signal)/(DMSO signal−positive control signal). KINOMEscan is an active site-directed competition binding assay that quantitatively measures the ability of a compound to compete with an immobilized, active-site directed ligand.

[2] = target: T1, AurA (Homo sapiens, UniProt O14965); assay: KINOMEscan primary screen against AurA; format: binding; conditions: % of control
T1 sequence (O14965 1-403): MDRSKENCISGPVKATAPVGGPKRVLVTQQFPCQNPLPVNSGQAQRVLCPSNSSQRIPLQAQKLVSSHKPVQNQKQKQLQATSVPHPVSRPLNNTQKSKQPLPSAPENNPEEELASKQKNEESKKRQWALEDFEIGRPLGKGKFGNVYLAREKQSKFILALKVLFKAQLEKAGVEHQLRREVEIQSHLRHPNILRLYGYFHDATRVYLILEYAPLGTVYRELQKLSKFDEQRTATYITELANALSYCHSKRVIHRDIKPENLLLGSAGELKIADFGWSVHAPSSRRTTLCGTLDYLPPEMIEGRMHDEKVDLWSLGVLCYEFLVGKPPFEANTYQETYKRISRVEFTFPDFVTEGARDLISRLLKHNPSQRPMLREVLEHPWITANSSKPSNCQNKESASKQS
Experimental: as §1

[3] = target: T1, AurA; assay: KdELECT Kd measurement (KINOMEscan), AurA; format: binding
Experimental: Kd measurements were done via the KdELECT product service from DiscoverX Corporation (Freemont, Calif., USA) which also employs the KINOMEscan technology. Here, inhibitor binding constants (Kd values) are calculated from duplicate 11-point dose-response curves.

[4] = target: full-length human TrkA receptor (Homo sapiens, UniProt P04629); assay: PathHunter cellular functional assay, antagonism of β-NGF; format: cell-based; conditions: antagonism at EC80 (0.03 μg/ml) of β-NGF; read-out: Cellular assay [RC50]
Sequence of full-length human TrkA receptor (P04629 33-796): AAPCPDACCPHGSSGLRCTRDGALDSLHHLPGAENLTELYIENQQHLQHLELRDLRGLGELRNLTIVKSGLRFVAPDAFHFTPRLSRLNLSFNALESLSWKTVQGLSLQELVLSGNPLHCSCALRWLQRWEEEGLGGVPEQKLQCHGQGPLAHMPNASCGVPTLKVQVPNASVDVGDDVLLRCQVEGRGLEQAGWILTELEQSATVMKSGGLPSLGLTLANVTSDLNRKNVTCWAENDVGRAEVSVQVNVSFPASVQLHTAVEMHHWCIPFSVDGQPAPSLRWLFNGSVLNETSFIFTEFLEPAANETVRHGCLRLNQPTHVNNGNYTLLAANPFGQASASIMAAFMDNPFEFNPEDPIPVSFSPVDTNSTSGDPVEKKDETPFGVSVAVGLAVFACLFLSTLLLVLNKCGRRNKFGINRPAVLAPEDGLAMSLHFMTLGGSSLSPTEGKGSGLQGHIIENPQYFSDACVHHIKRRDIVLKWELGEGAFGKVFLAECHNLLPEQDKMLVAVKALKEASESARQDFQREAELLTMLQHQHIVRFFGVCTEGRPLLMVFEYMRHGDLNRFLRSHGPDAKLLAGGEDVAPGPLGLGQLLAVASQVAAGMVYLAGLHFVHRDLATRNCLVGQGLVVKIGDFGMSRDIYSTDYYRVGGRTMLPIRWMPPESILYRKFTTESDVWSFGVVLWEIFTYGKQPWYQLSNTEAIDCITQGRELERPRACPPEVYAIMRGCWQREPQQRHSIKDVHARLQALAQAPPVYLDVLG
Sequence of full-length human TrkA receptor (P01138 122-241 partner): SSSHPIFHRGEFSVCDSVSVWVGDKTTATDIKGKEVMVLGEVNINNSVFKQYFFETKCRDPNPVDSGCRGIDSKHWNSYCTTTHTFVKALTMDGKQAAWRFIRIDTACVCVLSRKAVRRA
From the text: The two compounds a1 and b7 were additionally tested in a functional assay using the PathHunter® technology (DiscoverX Corporation, Freemont, Calif., USA; https://www.discoverx.com/technologies-platforms/enzyme-fragment-complementation-technoloqy/cell-based-efc-assays/protein-protein-interactions/kinases-cell-based-(rtk-ctk)). In this assay, the full-length human TrkA receptor (i.e. including ligand-binding and kinase domains) is expressed as a C-terminal (intracellular) fusion with a small peptide epitope, called Prolink™ (PK). Furthermore, a SH2 domain containing protein (i.e. Shc1) is co-expressed with a larger Enzyme Acceptor (EA) fragment. Activation of the TrkA receptor by adding the agonist ligand (β-NGF), leads to the auto-phosphorylation of the kinase and subsequent binding of the Shc1-EA protein. That recruitment results in an active B-galactosidase enzyme that is detected by addition of a chemiluminescent substrate.
Compounds were tested for antagonism using EC80 concentration (i.e. 0.03 μg/ml) of β-NGF. Data was normalized to the maximal and minimal response observed in the presence of EC80 agonist ligand (3-NGF) and vehicle (DMSO, final concentration 1%), respectively.

[5] = system: C57Bl/6 mice; assay: Toxicity after i.v. injection in mice; format: in vivo; conditions: for Toxicity: single animal
Experimental: . Dimethylsulfoxide (DMSO) from J. T. Baker (Germany), Cremophor EL (Polyoxyethyleneglycerol triricinoleate 35 castor oil) from BASF (Germany), and Saline solution 0.9% from B. Braun (Germany) were used in this study. Two types of formulations were prepared: a formulation with a high dose of compound a1 (9 mM) and a formulation with a low dose of compound a1 (1.8 mM); c.f. Tables 5 and 6. […]. The formulation with the high dose of a1 was prepared using 9% a1-DMSO stock solution, 10% Cremophor EL, and 81% saline. The formulation with the low dose of a1 contained 1.8% a1-DMSO stock solution, 5% Cremophor EL, and 93.2% saline; c.f. FIG. 2.
Experiments were carried out in accordance with the EU Directive 86/609/EEC on the protection of animals used for scientific purposes. […]; c.f. Table 6. After injection, the mice were returned to their home cages, and after 1 hour, the mice were anaesthetized with isoflurane. Terminal blood samples were collected using a 1 ml syringe (20-G needle, B. Braun). The blood was immediately transferred into a 1.3 ml heparin-coated tube (Sarstedt). Plasma was collected by centrifugation at 1500 g for 15 minutes. The supernatant was placed in a 1.5 ml tube on dry ice and stored at −20° C.

Sequence of TrkA (P04629 33-796): as the sequence (P04629 33-796) above

CN1CCN(c2cc(Nc3cc(-c4cccc(F)c4)[nH]n3)nc(Sc3ccccc3)n2)CC1 [a1, N-[5-(3-fluorophenyl)-1H-pyrazol-3-yl]-6-(4-methylpiperazin-1-yl)-2-(phenylsulfanyl)pyrimidin-4-amine]
% Ctrl. TrkA @10 nM ([1]; 10 nM compound): 11 % Ctrl. | % Ctrl. TrkA @100 nM ([1]; 100 nM compound): 1.9 % Ctrl. | % Ctrl. AurA @100 nM ([2]; 100 nM compound): 97 % Ctrl. | % Ctrl. AurA @1 μM ([2]; 1 μM compound): 92 % Ctrl. | AurA [pKd] [3]: 5.3 | Kd ([3]; duplicate 11-point dose-response curves): 4.5 µM | IC50 [4]: 26 nM | signs of toxicity ([5]; 5 and 25 mg/kg i.v., all animals): none of the animals showed any obvious signs of toxicity; also recorded: none of the animals showed any toxic sign | Toxicity ([5]; a1_high formulation, 25 mg/kg i.v.): None | Toxicity ([5]; a1_low formulation, 5 mg/kg i.v.): None

Source: patent US20200399250A1, “Pyrimidine Derivatives as Tropomyosin Receptor Kinase A (TRKA) Inhibitors” (BIOMED X GMBH, priority 2017, published 2020)
